Laboratory results from ChEMBL document CHEMBL1201862, “PubChem BioAssay data set” (2004).
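Method: 48-hour compound exposure of cells in 96-well plates, five concentrations, linear interpolation of endpoints. GI50 is the concentration that inhibits growth by half.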 Activity calls are given as the source filed them. Cut-off read from the data, not from the text of the source: active = GI50 up to about 1.1 µM and inactive = higher.

Key:
Assay in all cases: DTP human tumour cell line panel, 48 h
SR = tested on: SR
Malme-3M = tested on: Malme-3M
OVCAR-3 = tested on: OVCAR-3
KM12 = tested on: KM12
NCI-H226 = tested on: NCI-H226
HCC 2998 = tested on: HCC 2998
UACC-257 = tested on: UACC-257
HL-60 = tested on: HL-60
SF-268 = tested on: SF-268
SF-295 = tested on: SF-295
DLD-1 = tested on: DLD-1
NCI-H23 = tested on: NCI-H23
786-0 = tested on: 786-0
LOX IMVI = tested on: LOX IMVI
SK-OV-3 = tested on: SK-OV-3
NCI/ADR-RES = tested on: NCI/ADR-RES
Hs-578T = tested on: Hs-578T
MDA-MB-231 = tested on: MDA-MB-231
T47D = tested on: T47D

Measured: GI50

N#CCc1c(-c2ccccc2)n(S(=O)(=O)c2ccccc2)c2ccccc12
inactive: SR 12.2 µM | Malme-3M > 100 µM | OVCAR-3 > 100 µM | KM12 > 100 µM | NCI-H226 > 100 µM | HCC 2998 > 100 µM | UACC-257 > 100 µM | HL-60 > 100 µM | SF-268 > 100 µM | SF-295 25.1 µM | DLD-1 > 100 µM | NCI-H23 33.7 µM | 786-0 > 100 µM

NNC(=S)N/N=C/C(Cl)=C(\Cl)C(=O)O
inactive: SR > 100 µM | Malme-3M > 100 µM | OVCAR-3 > 100 µM | LOX IMVI > 100 µM | NCI-H226 > 100 µM | HCC 2998 > 100 µM | UACC-257 > 100 µM | HL-60 > 100 µM | SF-268 > 100 µM | SF-295 > 100 µM | DLD-1 > 100 µM | NCI-H23 > 100 µM | 786-0 > 100 µM

C/C(CC(=O)Nc1ccc(C)cc1)=N\NC(N)=S
inactive: Malme-3M > 100 µM | OVCAR-3 > 100 µM | KM12 77.4 µM | LOX IMVI 54.8 µM | NCI-H226 > 100 µM | HCC 2998 > 100 µM | UACC-257 > 100 µM | HL-60 > 100 µM | SF-268 > 100 µM | SF-295 > 100 µM | SK-OV-3 > 100 µM | DLD-1 97.7 µM | NCI-H23 > 100 µM | 786-0 > 100 µM

CC(=O)OCCOCn1c2ccccc2c2c3c(c4c5ccccc5n(COCCOC(C)=O)c4c21)C(=O)N(Cc1ccccc1)C3=O
inactive: Malme-3M > 100 µM | LOX IMVI > 100 µM | NCI-H226 > 100 µM | HCC 2998 > 100 µM | UACC-257 > 100 µM | HL-60 > 100 µM | SF-268 > 100 µM | SK-OV-3 > 100 µM | DLD-1 > 100 µM | NCI-H23 > 100 µM | 786-0 > 100 µM

O=C1CC(c2c(-c3ccccc3)[nH]c3ccccc23)C(=O)N1c1ccccc1 (stereo not given)
inactive: Malme-3M > 100 µM | OVCAR-3 61.5 µM | KM12 44.4 µM | NCI-H226 > 100 µM | HCC 2998 > 100 µM | UACC-257 > 100 µM | HL-60 44.6 µM | SF-295 13.5 µM | SK-OV-3 > 100 µM | DLD-1 70.5 µM | NCI-H23 78.7 µM | 786-0 > 100 µM

Cc1[nH]c2ccccc2c1C1Cc2ccccc2N1C(=O)/C=C\C(=O)O (stereo not given)
inactive: SR 29.6 µM | Malme-3M 73.3 µM | OVCAR-3 55.2 µM | KM12 32.6 µM | LOX IMVI 18.6 µM | NCI-H226 27.9 µM | HCC 2998 45.6 µM | UACC-257 19 µM | HL-60 26.4 µM | SF-268 36.3 µM | SF-295 45.6 µM | SK-OV-3 > 100 µM | DLD-1 64.9 µM | NCI-H23 56.4 µM | 786-0 38.7 µM

Nc1nc(O)c2nc(N)n(Cc3ccccc3)c2n1
inactive: SR > 100 µM | Malme-3M > 100 µM | OVCAR-3 > 100 µM | KM12 > 100 µM | LOX IMVI > 100 µM | HCC 2998 > 100 µM | UACC-257 > 100 µM | HL-60 > 100 µM | SF-268 > 100 µM | SF-295 > 100 µM | SK-OV-3 > 100 µM | DLD-1 > 100 µM | NCI-H23 > 100 µM | 786-0 > 100 µM

CCOC(=O)C1=C(C)NC(=S)NC1c1cccc(O)c1 (stereo not given) [MONASTROL]
inactive: SR 31.5 µM | Malme-3M 60.3 µM | OVCAR-3 50.9 µM | KM12 35 µM | LOX IMVI 72.8 µM | NCI-H226 55 µM | NCI/ADR-RES > 100 µM | Hs-578T 45.7 µM | HCC 2998 40 µM | UACC-257 62.7 µM | HL-60 25.7 µM | MDA-MB-231 38.6 µM | SF-268 56.5 µM | SF-295 30.5 µM | SK-OV-3 57.8 µM | NCI-H23 59.8 µM | T47D 34.9 µM | 786-0 57.9 µM
